Measured values: US9572786B2, “Use of capsiate or dihydrocapsidate” (Catholic University Industry Academy Cooperation Foundation, priority 2007, dated 2017)

Experiments:
COX-2 = test: UV-induced COX-2 expression in mouse skin tissue, Western blotting; type: in vivo; conditions: hairless mouse; 200 μL of 1 mM topically; 4 times of UV irradiation
Experimental: In order to confirm the in vitro experiment result performed on the human keratinocyte HaCaT cells in an animal model, experiment was carried out as follows using hairless mouse (SKH-1). Test groups were as follows: non-treated group—treated with acetone only without UV irradiation; test group A—treated with 200 μL of 1 mM capsiate dissolved in acetone every 24 hours without UV irradiation; control group—treated with UV and acetone; test group B—treated with UV and 200 μL of 1 mM capsiate dissolved in acetone every 24 hours (Unspecified conditions are the same as in Examples 5-7.).
Capsiate was applied on the back of the mouse. 1 hour later, UV was irradiated at an intensity of 2.5 kJ/m^2. 1 hour later, capsiate was applied again at the same concentration in order to prevent rash which may occur immediately after UV irradiation. Thereafter, capsiate was applied every 24 hours and UV irradiation was carried out every other day at an intensity of 2.5 kJ/m^2 for 4 times. In order to investigate the change of tissue and intracellular mechanism (signaling), the mouse was euthanized 1 hour after the final UV irradiation. Skin tissue was taken from the back of the mouse and subjected to skin biopsy following observation.
In the foregoing, it was confirmed that capsiate suppress inflammatory response, angiogenesis, edema, etc. caused by the UV-induced skin damage. […]

MMP-2 = test: UV-induced MMP-2 mRNA expression, RT-PCR; type: cell-based, human; conditions: HaCaT cells; 10, 25, 50 μM; UV 100 J/m^2; 36 hours
Experimental: The inhibition effect of capsiate on the expression of MMP-2 and MMP-9, which induce angiogenesis, was investigated through measurement of mRNA expression by RT-PCR and protein expression and activity measurement by zymography.
In order to investigate the inhibition effect of capsiate on MMP expression, 5×10^5 HaCaT cells were placed on a 60 mm Petri dish and cultured for 24 hours in DMEM containing 10% FBS. Subsequently, the cells were cultured for 24 hours in DMEM containing 1% FBS until starvation. Then, after treating with capsiate at different concentrations (10 μM, 25 μM, 50 μM) for 30 minutes, followed by washing 3 times with PBS, UV was irradiated at an intensity of 100 J/m^2. Immediately after the UV irradiation, the cells were washed again with PBS and further cultured for 36 hours in DMEM containing 1% FBS, which was treated with capsiate at the same concentration as in the pre-treatment. The degree of intracellular mRNA expression for MMP-2 and MMP-9 was measured by RT-PCR in the same manner as in Example 3. The degree of MMP expression was compared with that of the non-treated group.

P38 = test: MAPK signaling in mouse skin tissue, Western blotting: P38; type: in vivo; conditions: hairless mouse; UV+CPT vs UV with acetone only
Experimental: In order to investigate the intracellular mechanism (signaling) related with the inhibition of COX-2 expression by capsiate, Western blotting was carried out for MAPK signaling-related proteins (ERK, p-ERK, p38, p-p38 and JNK, p-JNK) as in Example 2-2, using proteins isolated from the mouse skin tissue.

IL-6 = test: UV-induced pro-inflammatory cytokine mRNA, RT-PCR: IL-6; type: cell-based, human; conditions: HaCaT cells; 10, 25, 50 μM; UV 100 J/m^2; 4 hours
Experimental: 1×10^6 HaCaT cells were placed on a 100 mm Petri dish and cultured for 24 hours in DMEM containing 10% FBS. Subsequently, the cells were cultured for 24 hours in DMEM containing 1% FBS until starvation. Then, after treating with capsiate at different concentrations (10 μM, 25 μM, 50 μM) for 30 minutes, followed by washing 3 times with PBS, UV was irradiated at an intensity of 100 J/m^2 to induce the production of cytokines. Immediately after the UV irradiation, the cells were washed again with PBS and further cultured for 4 hours in DMEM containing 1% FBS, which was treated with capsiate at the same concentration as in the pre-treatment.
Then, the degree of mRNA expression for IL-6, IL-8 and TNF-α induced mainly in the skin by the UV irradiation was evaluated by RT-PCR in order to measure the inhibition effect against the pro-inflammatory cytokines.
RNAs were extracted from the cells of each test group using Trizol (Invitrogen, USA) and used as template for PCR (PTC-225 Peltier thermal cycler, MJ Research, USA) to prepare cDNAs for each test group. Using the resultant cDNAs as template, the degree of mRNA expression for IL-6, IL-8 and TNF-α was measured by RT-PCR (Roter Gene 6000 series, Corbett Research, Australia) using commercial IL-6, IL-8 and TNF-α primers. […]

TNF-α = test: UV-induced TNF-α mRNA in hairless mouse skin, RT-PCR; type: in vivo; conditions: 200 μL of 1 mM topically 1 hour before UV 5 kJ/m^2 once, 6 hours later
Experimental: In order to investigate the effect of capsiate on the production of IL-6 and TNF-α induced in skin tissue during inflammatory response, the inhibition ability of capsiate against the expression of the pro-inflammatory cytokines was evaluated in animal model as follows. Test groups were as follows: non-treated group—treated with acetone only without UV irradiation; test group A—treated with 200 μL of 1 mM capsiate dissolved in acetone without UV irradiation; UV group—treated with acetone and UV; test group B—treated with 200 μL of 1 mM capsiate dissolved in acetone followed by UV irradiation 1 hour later.
To this end, acetone and capsiate were treated prior to UV irradiation. After treating with UV once at an intensity of 5 kJ/m^2, hairless mouse was euthanized 6 hours later. mRNA was extracted from the mouse tissue obtained by skin biopsy and RT-PCR was carried out as follows. For RNA extraction from the tissue, each mouse tissue obtained by skin biopsy was quickly frozen in liquid nitrogen and ground finely using a mortar. RNA was extracted from the mouse tissue using Trizol (Invitrogen, USA), and PCR (PTC-225 Peltier thermal cycler, MJ Research, USA) was carried out using it as template and using a commercial kit (reverse transcription system, Qiagen, USA). As a result, cDNA was prepared from each group. […]

In the case of COc1cc(COC(=O)CCCC/C=C/C(C)C)ccc1O [capsiate], the “expression of COX-2 induced in mouse skin tissue (Western blotting)” value (COX-2) is reported as “remarkably decreased”, the “UV-induced mRNA expression of MMP-2” value (MMP-2) is reported as “decreased” and the “P38 (phosphorylation) in mouse skin tissue” value (P38) is reported as “no significant difference”. The “expression of IL-6 (mRNA) increased by UV irradiation” value (IL-6) was “significantly decreases” and the “UV-induced expression of TNF-α (mRNA) in skin tissue” value (TNF-α) was “decrease”.
